Experiment [1] has as its target α2β2γ1 GABAA receptor subtype (Homo sapiens (Human), UniProt P47869+Q8N1C3). As to the kind of experiment: Two-electrode voltage clamp electrophysiology in Xenopus oocytes expressing GABAA receptors (modulation of GABA EC20 current). It is filed as cell-based. The note with it: for Efficacy (GABA)%: % modulation of GABA EC20 = 100*(Fold increase-1), α2β2γ1 oocytes, compound at approx. 30-fold Ki; for Fold increase h-GABA-A α2β2γ1 oocyte @ 30-fold Ki: Xenopus oocytes expressing α2β2γ1, compound at approx. 30-fold its Ki α2β2γ1, GABA EC20 current. The procedure, abridged: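 Each concentration was tested on ≥3 oocytes held at −80 mV at room temperature, recorded 3-5 days post-injection. A control and a test response to EC20 GABA (1.5 min each) were superimposed and their point-by-point ratio taken. Peak ratio reported as % modulation of GABA EC20 = 100×(fold increase−1).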
Background: Two-electrode voltage clamp is typically applied to oocytes expressing channels or transporters.

Experiment [2] concerns the target human GABAA α2β2γ1 receptor (Homo sapiens (Human), UniProt P47869+Q8N1C3). Nature of the experiment: Radioligand binding assay for γ1-containing GABAA subtypes, [3H]RO7239181 competition (α2β2γ1).
The target of experiment [3] is human GABAA α1β3γ2 receptor (Homo sapiens (Human), UniProt P14867+P18507). As to the kind of experiment: Radioligand binding assay for γ2-containing GABAA subtypes, [3H]Flumazenil competition (α1β3γ2). The note with it: for γ2/γ1 Selectivity Ratio: Ki α1β3γ2 (nM)/Ki α2β2γ1 (nM); for LogSel: Log[Ki α1β3γ2 (nM)/Ki α2β2γ1 (nM)].
The target of experiment [4] is human GABAA α5β2γ1 receptor (Homo sapiens (Human), UniProt P31644+Q8N1C3). As to the kind of experiment: Radioligand binding assay for γ1-containing GABAA subtypes, [3H]RO7239181 competition (α5β2γ1).
[5] abbreviates: Ki h-GABAA α2β2γ1, [3H]RO7239181 competition binding, human GABAA α2β2γ1.
Setting [6] is: Ki h-GABAA α2β2γ1, displacement of [3H]RO7239181, membranes of HEK293F cells expressing human receptors, means of two determinations.

This is an account of results in US12365687B2 (Hoffmann-La Roche Inc., priority 2021, dated 2025).

As to `C[C@@H]1N=C(c2c(F)cccc2F)c2c(ccc(Cl)c2Cl)-n2nc(C(F)F)nc21` [Example 18], in experiment [1], the “Efficacy (GABA)%” value was found to be 70% and the “Fold increase h-GABA-A α2β2γ1 oocyte @ 30-fold Ki” value worked out at 1.70. In addition, affinity in experiment [2] (setting [5]) was put at a Ki of 11.9 nM. Also, affinity in experiment [2] (setting [6]) was put at a Ki of 11.9 nM. In experiment [3], the affinity, expressed as Ki, was 437 nM; the “γ2/γ1 Selectivity Ratio” value is on record as 36.8; the LogSel turned out to be 1.57. In addition, the Ki (commonly the dissociation constant of the complex between target and ligand, obtained from inhibition or displacement) in experiment [4] came out at 0.69 nM.
As to `Cc1nc2n(n1)-c1ccc(Cl)c(Cl)c1C(c1ncccc1F)=N[C@H]2C` [Example 84, (4S)-7,8-dichloro-6-(3-fluoro-2-pyridyl)-2,4-dimethyl-4H-[1,2,4]triazolo[1,5-a][1,4]benzodiazepine], in experiment [1], the “Efficacy (GABA)%” value is recorded as 175% and the “Fold increase h-GABA-A α2β2γ1 oocyte @ 30-fold Ki” value was determined as 2.75. In experiment [2] (setting [5]), this compound registered a Ki of 28.4 nM. Further, the Ki in experiment [2] (setting [6]) was 28.4 nM. In experiment [3], the Ki came out at 977 nM, the “γ2/γ1 Selectivity Ratio” value is 34.4 and the LogSel is listed as 1.54. The compound also gave a Ki in experiment [4] of 2.8 nM.
As for `COC1CN(C(=O)c2nc3n(n2)-c2ccc(Cl)c(Cl)c2C(c2c(F)cccc2F)=NC3)C1` [Example 11, [7,8-dichloro-6-(2,6-difluorophenyl)-4H-[1,2,4]triazolo[1,5-a][1,4]benzodiazepin-2-yl]-(3-methoxyazetidin-1-yl)methanone], in experiment [1], the “Efficacy (GABA)%” value turned out to be 62% and the “Fold increase h-GABA-A α2β2γ1 oocyte @ 30-fold Ki” value came to 1.62. This compound had a Ki in experiment [2] (setting [5]) of 2.7 nM. The Ki in experiment [2] (setting [6]) was determined as 2.71 nM. Besides, in experiment [3], the Ki is 451 nM, the “γ2/γ1 Selectivity Ratio” value is reported as 166.3 and the LogSel is listed as 2.22. This compound also gave a Ki in experiment [4] of 0.84 nM.
With `C[C@@H]1N=C(c2ncccc2F)c2c(ccc(C(F)(F)F)c2Cl)-n2cc(C(=O)NCC3(O)CC3)nc21` [Example 164, (4S)-7-chloro-6-(3-fluoro-2-pyridyl)-N-[(1-hydroxycyclopropyl)methyl]-4-methy-8-(trifluoromethyl)-4H-imidazo[1,2-a][1,4]benzodiazepine-2-carboxamide], in experiment [1], the “Efficacy (GABA)%” value came to 177% and the “Fold increase h-GABA-A α2β2γ1 oocyte @ 30-fold Ki” value is on record as 2.77. The compound also displayed a Ki in experiment [2] (setting [5]) of 35.2 nM. In experiment [2] (setting [6]), this compound yielded a Ki of 33.7 nM. In experiment [3], the Ki was 8520 nM, the “γ2/γ1 Selectivity Ratio” value worked out at 253.2 and the LogSel was 2.40. The Ki in experiment [4] is 10.6 nM.
For the compound `COC1CN(C(=O)c2cn3c(n2)CN=C(c2c(F)cccc2F)c2c-3ccc(Cl)c2Cl)C1` [Example 2, (7,8-dichloro-6-(2,6-difluorophenyl)-4H-benzo[f]imidazo[1,2-a][1,4]diazepin-2-yl)(3-methoxyazetidin-1-yl)methanone], in experiment [1], the “Efficacy (GABA)%” value amounted to 42% and the “Fold increase h-GABA-A α2β2γ1 oocyte @ 30-fold Ki” value came to 1.42. The same compound registered a Ki in experiment [2] (setting [5]) of 6.5 nM. Also, the Ki in experiment [2] (setting [6]) worked out at 6.5 nM. In addition, in experiment [3], the affinity corresponds to a Ki of 255 nM, the “γ2/γ1 Selectivity Ratio” value is reported as 39.3 and the LogSel was found to be 1.59. Further, the Ki in experiment [4] was 1.26 nM.
`[2H]C([2H])([2H])OC1CN(C(=O)c2nc3n(n2)-c2ccc(Cl)c(Cl)c2C(c2ncccc2F)=N[C@H]3C)C1` [Example 39, [(4S)-7,8-dichloro-6-(3-fluoro-2-pyridyl)-4-methyl-4H-[1,2,4]triazolo[1,5-a][1,4]benzodiazepin-2-yl]-[3-(trideuteriomethoxy)azetidin-1-yl]methanone]: in experiment [1], the “Efficacy (GABA)%” value is 89% and the “Fold increase h-GABA-A α2β2γ1 oocyte @ 30-fold Ki” value amounted to 1.89. For the same compound, the Ki in experiment [2] (setting [5]) came to 17.7 nM. Also, the Ki in experiment [2] (setting [6]) was found to be 17.7 nM. In addition, in experiment [3], the Ki was 4200 nM, the “γ2/γ1 Selectivity Ratio” value amounted to 237.9 and the LogSel came to 2.38. In experiment [4], the Ki was 6.85 nM.
On to `C[C@@H]1N=C(c2c(F)cccc2F)c2c(ccc(C(F)(F)F)c2Cl)-n2nc(C(=O)N3CC(C(F)F)C3)nc21` [Example 122, [(4S)-7-chloro-6-(2,6-difluorophenyl)-4-methyl-8-(trifluoromethyl)-4H-[1,2,4]triazolo[1,5-a][1,4]benzodiazepin-2-yl]-[3-(difluoromethyl)azetidin-1-yl]methanone], for which the “Efficacy (GABA)%” value in experiment [1] turned out to be 91%. Besides, the “Fold increase h-GABA-A α2β2γ1 oocyte @ 30-fold Ki” value in experiment [1] is given as 1.91. Further, the Ki in experiment [2] (setting [5]) worked out at 10.6 nM; in experiment [2] (setting [6]), 10.6 nM; in experiment [3] it was 3050 nM; in experiment [4], 3.82 nM. Besides, the “γ2/γ1 Selectivity Ratio” value in experiment [3] is reported as 287.8. The LogSel in experiment [3] is listed as 2.46.
`C[C@@H]1N=C(c2c(F)cccc2F)c2c(ccc(C(F)(F)F)c2Cl)-n2nc(NC(=O)N3C4CC3CS(=O)(=O)C4)nc21` (single isomer, unassigned) [Example 134]: in experiment [1], the “Efficacy (GABA)%” value is 101% and the “Fold increase h-GABA-A α2β2γ1 oocyte @ 30-fold Ki” value is 2.01. The same compound registered a Ki in experiment [2] (setting [5]) of 19.3 nM. The same compound registered a Ki in experiment [2] (setting [6]) of 19.3 nM. Also, in experiment [3], the Ki turned out to be 1480 nM, the “γ2/γ1 Selectivity Ratio” value is on record as 76.7 and the LogSel is 1.88. The compound further returned a Ki in experiment [4] of 2.36 nM.
Consider `COC1CN(C(=O)c2cn3c(n2)[C@H](C)N=C(c2ncccc2F)c2c-3ccc(C(F)(F)F)c2Cl)C1` [Example 145, [(4S)-7-chloro-6-(3-fluoro-2-pyridyl)-4-methyl-8-(trifluoromethyl)-4H-imidazo[1,2-a][1,4]benzodiazepin-2-yl]-(3-methoxyazetidin-1-yl)methanone], for which, in experiment [1], the “Efficacy (GABA)%” value is 168% and the “Fold increase h-GABA-A α2β2γ1 oocyte @ 30-fold Ki” value is on record as 2.68. In experiment [2] (setting [5]), the Ki came out at 93.1 nM. In experiment [2] (setting [6]), this compound returned a Ki of 93.1 nM. Moreover, in experiment [3], the Ki came to 13200 nM, the “γ2/γ1 Selectivity Ratio” value was 141.7 and the LogSel is 2.15. In experiment [4], this compound came in with a Ki of 18.4 nM.
As for `COC1CN(C(=O)Nc2nc3n(n2)-c2ccc(Cl)c(Cl)c2C(c2c(F)cccc2F)=N[C@H]3C)C1` [Example 60, 3-methoxy-N-[(4S)-7,8-dichloro-6-(2,6-difluorophenyl)-4-methyl-4H-[1,2,4]triazolo[1,5-a][1,4]benzodiazepin-2-yl]azetidine-1-carboxamide], in experiment [1], the “Efficacy (GABA)%” value was 107% and the “Fold increase h-GABA-A α2β2γ1 oocyte @ 30-fold Ki” value is 2.07. In experiment [2] (setting [5]), affinity was put at a Ki of 12.3 nM. This compound came in with a Ki in experiment [2] (setting [6]) of 12.3 nM. In experiment [3], the Ki came to 602 nM, the “γ2/γ1 Selectivity Ratio” value is given as 49.1 and the LogSel came to 1.69. In experiment [4], the Ki is 1.49 nM.
In the case of `C[C@@H]1N=C(c2ncccc2F)c2c(ccc(C(F)(F)F)c2Cl)-n2nc(C(=O)N3CC(OC(F)F)C3)nc21` [Example 140, [(4S)-7-chloro-6-(3-fluor-2-pyridyl)-4-methyl-8-(trifluoromethyl)-4H-[1,2,4]triazolo[1,5-a][1,4]benzodiazepin-2-yl]-[3-(difluoromethoxy)azetidin-1-yl]methanone], in experiment [1], the “Efficacy (GABA)%” value is 121% and the “Fold increase h-GABA-A α2β2γ1 oocyte @ 30-fold Ki” value is 2.21. In experiment [2] (setting [5]), the Ki came out at 28.8 nM. Moreover, the Ki in experiment [2] (setting [6]) came out at 28.8 nM. In experiment [3], the Ki is above 30000 nM, the “γ2/γ1 Selectivity Ratio” value was found to be 1041.0 and the LogSel is listed as 3.02. This compound also had a Ki in experiment [4] of 6.63 nM.
